# Patent publication US20180243289A1, “[…] COMPOUNDS FOR TREATING AGITATION” (Concert Pharmaceuticals, Inc., priority 2015, published 2018)
# Structures can show the parent of a compound that is named as a salt.
# Columns and labels:
# CYP2D6 = biological target: T1, CYP2D6 (Homo sapiens, UniProt P10635); experiment: Metabolic stability in CYP2D6 SUPERSOMES; type: in vitro ADME; settings: recombinant CYP2D6 SUPERSOMES, 50 pmol/mL CYP2D6 SUPERSOMES, 1 μM test compound, 2 mM NADPH, pH 7.4, 37° C., 0-30 min, read-out: t1/2 ± SD, calculated half-life in SUPERSOMES
# T1 construct: purchased GenTest (Woburn, Mass., USA)
# Protocol: Human CYP2D6 SUPERSOMES™ were purchased from GenTest (Woburn, Mass., USA). 7.5 mM stock solutions of test compounds (Compounds 100, 102, and the ethyl ether analog of dextromethorphan (“dextroethorphan”) were prepared in DMSO. The 7.5 mM stock solutions were diluted to 50 μM in acetonitrile (ACN). The 1000 pmol/mL CYP2D6 supersomes were diluted to 62.5 pmol/mL in 0.1 M potassium phosphate buffer, pH 7.4, containing 3 mM MgCl2. The diluted SUPERSOMES™ were added to wells of a 96-well deep-well polypropylene plate in triplicate. 10 μL of the 50 μM test compound was added to the supersomes and the mixture was pre-warmed for 10 minutes. Reactions were initiated by addition of pre-warmed NADPH solution. The final reaction volume was 0.5 mL and contained 50 pmol/mL CYP2D6 SUPERSOMES™, 1 μM test compound, and 2 mM NADPH in 0.1 M potassium phosphate buffer, pH 7.4, and 3 mM MgCl2. The reaction mixtures were incubated at 37° C. and 50 μL aliquots were removed at 0, 5, 10, 20, and 30 minutes and added to shallow-well 96-well plates which contained 50 μL of ice-cold ACN with internal standard to stop the reactions. The plates were stored at 4° C. for 20 minutes after which 100 μL of water was added to the wells of the plate before centrifugation to pellet precipitated proteins. Supernatants were transferred to another 96-well plate and analyzed for amounts of parent remaining by LC-MS/MS using an Applied Bio-systems API 4000 mass spectrometer.
# The in vitro half-life (t1/2) for each of the test compounds was calculated from the slopes of the linear regression of % parent remaining (ln) vs incubation time relationship: in vitro t1/2=0.693/k, where k=−[slope of linear regression of % parent remaining (ln) vs incubation time]. Data analysis was performed using Microsoft Excel Software.
# [1] = Metabolic stability using human liver microsomes; type: in vitro ADME; settings: for half-life at 1 μM / Change over non-deuterated compound (Table 3): Table 3 experiment; for half-life at 1 μM: read-out: t1/2 ± SD, calculated half-life in human liver microsomes (Table 3); for Change over non-deuterated compound (Table 3): change of half-life in human liver microsomes vs dextroethorphan
# Protocol: Human liver microsomes (20 mg/mL) were obtained from Xenotech, LLC (Lenexa, Kans.). β-nicotinamide adenine dinucleotide phosphate, reduced form (NADPH), magnesium chloride (MgCl2), and dimethyl sulfoxide (DMSO) were purchased from Sigma-Aldrich.
# 7.5 mM stock solutions of test compounds were prepared in DMSO. The 7.5 mM stock solutions were diluted to 50 μM in acetonitrile (ACN). The 20 mg/mL human liver microsomes were diluted to 1.25 mg/mL (1 mg/mL final) in 0.1 M potassium phosphate buffer, pH 7.4, containing 3 mM MgCl2. The diluted microsomes (375 μL) were added to wells of a 96-well polypropylene plate in triplicate. 10 μL of the 50 μM test compound was added to the microsomes and the mixture was pre-warmed for 10 minutes. Reactions were initiated by addition of 125 μL of pre-warmed NADPH solution. The final reaction volume was 0.5 mL and contained 1.0 mg/mL human liver microsomes, 1 μM test compound, and 2 mM NADPH in 0.1 M potassium phosphate buffer, pH 7.4, and 3 mM MgCl2. The reaction mixtures were incubated at 37° C., and 50 μL aliquots were removed at 0, 5, 10, 20, and 30 minutes and added to shallow 96-well plates which contained 50 μL of ice-cold ACN with internal standard to stop the reactions. The plates were stored at 4° C. for 20 minutes after which 100 μL of water was added to the wells of the plate before centrifugation to pellet precipitated proteins. Supernatants were transferred to another 96-well plate and analyzed for amounts of parent remaining by LC-MS/MS using an Applied Bio-systems API 4000 mass spectrometer. 7-ethoxy coumarin was used as a positive control.
# The in vitro t1/2s for test compounds were calculated from the slopes of the linear regression of % parent remaining (ln) vs incubation time relationship:
# in vitro t1/2=0.693/k, where k=−[slope of linear regression of % parent remaining(ln) vs incubation time]
# Data analysis was performed using Microsoft Excel Software.
# [2] = 1.0 mg/mL human liver microsomes, 1 μM test compound, 2 mM NADPH, pH 7.4, 37° C.
# T1 sequence (P10635 whole entry): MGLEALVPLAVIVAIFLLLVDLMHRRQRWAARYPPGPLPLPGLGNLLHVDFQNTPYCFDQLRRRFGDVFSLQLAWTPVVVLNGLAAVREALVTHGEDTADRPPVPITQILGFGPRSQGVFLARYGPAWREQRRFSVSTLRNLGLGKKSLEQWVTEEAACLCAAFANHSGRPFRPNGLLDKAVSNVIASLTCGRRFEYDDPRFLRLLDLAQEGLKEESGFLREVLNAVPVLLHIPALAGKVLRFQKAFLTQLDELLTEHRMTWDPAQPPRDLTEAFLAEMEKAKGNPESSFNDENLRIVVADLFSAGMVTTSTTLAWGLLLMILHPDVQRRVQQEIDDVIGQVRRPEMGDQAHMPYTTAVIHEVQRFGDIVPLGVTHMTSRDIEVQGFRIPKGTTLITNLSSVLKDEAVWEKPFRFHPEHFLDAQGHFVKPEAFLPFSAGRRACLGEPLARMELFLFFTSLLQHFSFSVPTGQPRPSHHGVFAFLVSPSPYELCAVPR
Compound,half-life at 1 μM (CYP2D6),"half-life at 1 μM [1, 2]",Change over non-deuterated compound (Table 3) [1],"t1/2 ± SD, calculated half-life in human liver microsomes (Table 4) ([1]; 1.0 mg/mL human liver microsomes, 1 μM test compound, 2 mM NADPH, pH 7.4, 37° C., Table 4 experiment)"
"[2H]C([2H])([2H])N1CC[C@@]23CCCC[C@@H]2[C@@H]1Cc1ccc(OC([2H])([2H])C([2H])([2H])[2H])cc13 [Compound 100, (+)-3-(Ethoxy-d5)-17-(methyl-d3)-(9α,13α,14α)-morphinan hydrochloride]",51.3 ± 3.7 min,59.2 ± 1.7 min,109%,–
"[2H]C([2H])([2H])C([2H])([2H])Oc1ccc2c(c1)[C@]13CCCC[C@@H]1[C@H](C2)N(C)CC3 [Compound 104, (+)-3-(Ethoxy-d5)-17-methyl-(9α,13α,14α)-morphinan hydrochloride]",49.1 ± 4.1 min,59.1 ± 2.2 min,109%,–
"CCOc1ccc2c(c1)[C@@]13CCCC[C@H]1[C@@H](C2)N(C)CC3 [Dextroethorphan, (+)-3-ethoxy-17-methylmorphinan, reference compound]",10.3 ± 2.1 min,28.3 ± 0.6 min,–,37.1 ± 5.6 min
"COc1ccc2c(c1)[C@]13CCCC[C@@H]1[C@H](C2)N(C)CC3 [Dextromethorphan, (+)-3-methoxy-17-methyl-(9α,13α,14α)-morphinan, reference compound]",1.7 ± 0.3 min,–,–,–
